{"source": "paper PMC9492542", "about": "“Brain-restricted mTOR inhibition with binary pharmacology” (Nature, 2022)", "key": {"FKBP12": {"target": "T1, FKBP12 (Homo sapiens, UniProt P62942)", "T1 construct": "His-tag (HRV 3C cleavable) (cleaved yes); made in house; host or cells: Escherichia coli BL21(DE3)", "T1 sequence (P62942 whole entry)": "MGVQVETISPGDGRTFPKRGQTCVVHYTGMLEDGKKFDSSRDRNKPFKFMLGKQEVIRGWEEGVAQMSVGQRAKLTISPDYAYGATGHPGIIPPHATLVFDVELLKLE", "experiment": "Competition fluorescence polarization assay with FITC-rapamycin tracer", "type": "binding", "experimental": "Compound binding affinity was determined using a competition fluorescence polarization assay. […] The assay buffer was 20 mM HEPES pH 7.5 and 0.01% Triton X-100. […] Data were fitted to a three-parameter sigmoidal curve to derive IC50 values. Ki of the compounds were calculated using a tool provided by S. Wang’s laboratory (http://www.umich.edu/~shaomengwanglab/software/calc_ki/index.html). Data were plotted in GraphPad Prism 9.0."}, "mTOR": {"system": "mTOR", "experiment": "Immunoblot analysis of mTOR signalling (p-S6, p-4EBP1) in MCF7 cells, incl. screen for blocking of rapamycin/RapaLink-1", "conditions": "10 nM RapaLink-1 + 10 µM blocker, immunoblot"}, "K562 CRISPRi cells": {"system": "K562 CRISPRi cells", "experiment": "Cellular dye (TAMRA) retention assay by flow cytometry", "type": "cell-based", "conditions": "after extensive washout", "method": "Untransduced (no virus or sgRNA^–) and sgRNA expression vector-transduced (sgRNA^+) K562 CRISPRi cells were mixed in a 1:1 ratio, plated in 48-well plates and incubated overnight. Cell mixtures were treated with the indicated TAMRA-linked compounds (300 μl final volume) and incubated for 24 h. Plates were placed over ice and 200 μl of each compound–cell mixture was transferred to a 96-well U-bottom plate. Cells were pelleted at 500g for 5 min and subsequently washed 2× with ice-cold FACS buffer (PBS + 1% BSA + 0.1% NaN3). Cells were resuspended in 200 μl of ice-cold FACS buffer and assessed using an Attune NxT (Thermo Fisher Scientific). Relative uptake of TAMRA-linked compounds was determined by comparing TAMRA fluorescence (561-nm excitation laser and 585/16-nm emission filter) between sgRNA^– and sgRNA^+ cells within each well."}}, "note": "pKi: −log10 of the molar value.", "data": [{"smiles": "CCON=C1C[C@H](O)[C@@H](C)[C@@H](/C(C)=C/[C@@H]2CC[C@@H](O)[C@H](OC)C2)OC(=O)[C@@H]2CCCCN2C(=O)C(=O)[C@]2(O)O[C@H]([C@@H](OC)C[C@@H](C)C/C(C)=C/[C@H]1CCCc1cccc[n+]1[O-])[C@@H](OC)C[C@H]2C", "note": "[RapaBlock ethyl oxime]", "values": [{"measurement": "pKi", "setting": "FKBP12", "value": 6.44}, {"measurement": "blocking of mTOR inhibition by RapaLink-1 in cells", "setting": "mTOR", "value": "less potent at blocking RapaLink-1"}, {"measurement": "blocking of mTOR inhibition by RapaLink-1 in cells", "setting": "mTOR; listed as RapaBlock-Oxime", "value": "much less effective at blocking the inhibition"}]}, {"smiles": "CO[C@H]1C[C@@H]2CC[C@@H](C)[C@@](O)(O2)C(=O)C(=O)N2CCCC[C@H]2C(=O)O[C@H]([C@H](C)C[C@@H]2CC[C@@H](OCCOCc3cn(CCOCCOCCOCCOCCOCCOCCOCCOCCNC(=O)c4ccc(C(=O)[O-])c(-c5c6ccc(=[N+](C)C)cc-6oc6cc(N(C)C)ccc56)c4)nn3)[C@H](OC)C2)CC(=O)[C@H](C)/C=C(\\C)[C@@H](O)[C@@H](OC)C(=O)[C@H](C)C[C@H](C)/C=C/C=C/C=C/1C", "note": "[RapaTAMRA]", "values": [{"measurement": "cellular retention (median fluorescence intensity)", "setting": "K562 CRISPRi cells", "value": "tenfold increase in median fluorescence intensity"}]}]}
